Data from patent publication US20200367506A1, “RARE EARTH DEPENDENT PLANT PROBIOTIC COMPOSITIONS AND METHODS OF USE” (BOARD OF TRUSTEES OF MICHIGAN STATE UNIVERSITY, priority 2017, published 2020).

Columns and labels:
M. extorquens = assay: Illumina-based transcriptome analysis (RNA-seq) of cells grown with and without REE; type: cell-based; conditions: La^3+ vs without REE
Method: To identify mechanisms by which M. extorquens can sense and acquire REE, as well as to support REE-dependent methanol growth, Illumina-based transcriptome analyses (RNA-seq) was performed. Comparison of cells grown in liquid culture with and without REE addition allowed us to identify changes that may be relevant in planta.
It is intriguing to speculate that the reason why Fdh4 activity has never been detected is because it may require REEs. Frc12 and Oxr are enzymes of the oxalyl-CoA pathway (OXC). This pathway is known to produce glyoxylate when M. extorquens is grown with oxalate as a carbon source.

[1] = test system: M. extorquens mxaF mutant strain; assay: REE/La^3+-dependent methanol growth of mxaF mutant strain; type: cell-based
Text: FIGS. 5A-5B show REE-dependent methylotrophy.
There is a direct link between REEs commonly used in fertilizers, such as La, Ce^3+, Pr^3+, and Nd^3+, and growth of M. extorquens using methanol as carbon source (FIG. 5A). […] Alternatively, it is possible that the remaining lanthanides are not transported into the cell. Detailed biochemical analyses are required to distinguish between these two possibilities.
The concentrations of exogenous La^3+ that would support La^3+-dependent methanol growth were assessed using methanol medium supplemented with La^3+ concentrations ranging from 0-20 μM (FIG. 5B). The mxaF mutant strain was used to eliminate any contribution by the Ca^2+-dependent methanol dehydrogenase MxaFI.

[La+3] [La^3+, lanthanum]
Upregulation of Zn-containing alcohol dehydrogenase Zn-ADH (M. extorquens): 4.8 fold | Upregulation of an ABC transporter (M. extorquens): 6.3 fold | Upregulation of formate dehydrogenase Fdh4 (M. extorquens): 4 fold | Upregulation of formyl-CoA transferase Frc12 (M. extorquens): 3 fold | Upregulation of oxalyl-CoA (Oxr) (M. extorquens): 2.5 fold | Upregulation of putative alcohol dehydrogenase quinoprotein ExaF (M. extorquens): 3.4 fold | Upregulation of the PQQ synthesis pathway (M. extorquens): 10 fold | Upregulation of methanol dehydrogenase genes XoxF1 and XoxF2 (M. extorquens; methanol growth): 10 fold | Final OD600 ([1]; 1 μM La^3+): 1.6 | La^3+ concentration resulting in maximal growth rate ([1]; methanol medium): 1 µM | Lowest La^3+ concentration at which La^3+-dependent methanol growth was observed ([1]; poor growth): 2.5 nM
